Data taken from PubChem BioAssay (NCI).
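Briefly, cells in 96-well plates were exposed to five compound concentrations for 48 h, and endpoints were estimated by linear interpolation. GI50 marks 50% less growth. Definition used: TGI = concentration required for complete inhibition of growth.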

Tests used:
Assay in all cases: NCI tumour cell line growth inhibition, 48 h
[1] = tested on: 786-0 renal
[2] = tested on: A498 renal
[3] = tested on: A549 NSCLC
[4] = tested on: ACHN renal
[5] = tested on: CAKI-1 renal
[6] = tested on: CCRF-CEM leukemia
[7] = tested on: COLO 205 colon
[8] = tested on: DU-145 prostate
[9] = tested on: EKVX NSCLC
[10] = tested on: HCC-2998 colon
[11] = tested on: HCT-116 colon
[12] = tested on: HCT-15 colon
[13] = tested on: HL-60(TB) leukemia
[14] = tested on: HOP-62 NSCLC
[15] = tested on: HOP-92 NSCLC
[16] = tested on: HS 578T breast
[17] = tested on: HT29 colon
[18] = tested on: IGROV1 ovarian
[19] = tested on: K-562 leukemia
[20] = tested on: KM12 colon
[21] = tested on: LOX IMVI melanoma
[22] = tested on: M14 melanoma
[23] = tested on: MALME-3M melanoma
[24] = tested on: MCF7 breast
[25] = tested on: MDA-MB-231 breast
[26] = tested on: MDA-MB-435
[27] = tested on: MOLT-4 leukemia

COC(=O)c1cc2c(cc1Cl)SC(N(N(C)C)S(=O)(=O)c1ccc(Br)s1)=NS2(=O)=O
GI50 [1]: 35.1 µM | TGI [1]: > 100 µM | GI50 [2]: 28.8 µM | TGI [2]: 80.1 µM | GI50 [3]: 32 µM | TGI [3]: > 100 µM | GI50 [4]: 24.2 µM | TGI [4]: 54.1 µM | GI50 [5]: 28.3 µM | TGI [5]: 60.7 µM | GI50 [6]: 23.1 µM | TGI [6]: 72.5 µM | GI50 [7]: 21.2 µM | TGI [7]: 50.9 µM | GI50 [8]: 26.1 µM | TGI [8]: 86 µM | GI50 [9]: 25.3 µM | TGI [9]: 61 µM | GI50 [10]: 19.7 µM | TGI [10]: 40.6 µM | GI50 [11]: 26.6 µM | TGI [11]: 73.6 µM | GI50 [12]: 18 µM | TGI [12]: 33.6 µM | GI50 [13]: 19.6 µM | TGI [13]: 44.5 µM | GI50 [14]: 31.1 µM | TGI [14]: > 100 µM | GI50 [15]: 18.5 µM | TGI [15]: 36.7 µM | GI50 [16]: 26.2 µM | TGI [16]: 63.5 µM | GI50 [17]: 21.3 µM | TGI [17]: 56.9 µM | GI50 [18]: 29 µM | TGI [18]: 94.3 µM | GI50 [19]: 16.1 µM | TGI [19]: 33.6 µM | GI50 [20]: 24.8 µM | TGI [20]: 74.4 µM | GI50 [21]: 17.5 µM | TGI [21]: 31.8 µM | GI50 [22]: 23.2 µM | TGI [22]: 49.2 µM | GI50 [23]: 24.9 µM | TGI [23]: 74 µM | GI50 [24]: 22.4 µM | TGI [24]: 44.7 µM | GI50 [25]: 20.3 µM | TGI [25]: 43.9 µM | GI50 [26]: 23.1 µM | TGI [26]: 49.7 µM | GI50 [27]: 15.5 µM | TGI [27]: 36.1 µM
